For seven molecules, GI50 and TGI results are on record in PubChem BioAssay (NCI).

The structures appear in SMILES notation.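 Briefly, cells in 96-well plates were exposed to five compound concentrations for 48 h, and endpoints were estimated by linear interpolation. GI50 marks 50% less growth. TGI marks complete inhibition of growth.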 Bounds are passed on as bounds.

Test systems include HL-60(TB) leukemia; HCT-15 colon; IGROV1 ovarian; UACC-257 melanoma; NCI-H460 lung; COLO 205 colon; NCI-H23 lung; MCF7 breast.
Common to all, as to test: growth of human tumour cells (NCI), 48 h

On to `COc1ccc(/C=C/C(C)=N/OCC(=O)Nc2ccc(Cl)cc2)cc1`, for which the GI50 with HL-60(TB) leukemia was 2.55 µM; in the test on HCT-15 colon it was 2.14 µM; with IGROV1 ovarian, 3.42 µM; in the test with UACC-257 melanoma, 3.4 µM; in the test with NCI-H460 lung, 3.1 µM; in the test on COLO 205 colon, 3.64 µM. For the same molecule, the GI50 with NCI-H23 lung is 2.54 µM; in the test with MCF7 breast, 2.3 µM. The TGI was found to be 10.5 µM in the test with HL-60(TB) leukemia; 15.6 µM in the test with HCT-15 colon; 51.6 µM in the test with IGROV1 ovarian; 22.2 µM with UACC-257 melanoma; 16.7 µM in the test on NCI-H460 lung; 14 µM with COLO 205 colon. Besides, the TGI in the test on NCI-H23 lung amounted to 10.2 µM; with MCF7 breast it was 18.8 µM.
Regarding `CCSc1ncc(Br)c(Sc2nc(N)nc3nc[nH]c23)n1`, the GI50 in the test on HL-60(TB) leukemia is 19.8 µM; in the test on HCT-15 colon, 4.07 µM; in the test on IGROV1 ovarian it was 2.7 µM; in the test with UACC-257 melanoma, 12.4 µM; in the test on NCI-H460 lung, 3.08 µM; with COLO 205 colon it was 15.1 µM. Besides, the GI50 with NCI-H23 lung is 2.69 µM; in the test on MCF7 breast, 3.04 µM. In addition, the TGI in the test with HL-60(TB) leukemia was 88.6 µM; with HCT-15 colon, over 100 µM; in the test on IGROV1 ovarian it was 30 µM; in the test on UACC-257 melanoma it was over 100 µM; in the test with NCI-H460 lung, 23.4 µM; with COLO 205 colon, 52.6 µM. For the same molecule, the TGI in the test with NCI-H23 lung and in the test with MCF7 breast was over 100 µM throughout.
Turning to `Cc1ccc(C2=C(Cl)C(=O)C(c3ccc(C)cc3)=C(Cl)C2=O)cc1`, the TGI with HL-60(TB) leukemia, with HCT-15 colon, with IGROV1 ovarian, with UACC-257 melanoma, with NCI-H460 lung and in the test on COLO 205 colon was over 100 µM in each case. For the same molecule, the TGI in the test with NCI-H23 lung and in the test on MCF7 breast was over 100 µM in each case.
As for `NC(N)=N/N=C(/c1ccccc1)c1ccccc1F`, the GI50 in the test with HL-60(TB) leukemia is 2.96 µM; in the test with HCT-15 colon it was 1.98 µM; with IGROV1 ovarian, 2.89 µM; in the test on UACC-257 melanoma it was 15.8 µM; in the test on NCI-H460 lung it was 2.31 µM; in the test with COLO 205 colon it was 2.16 µM. Further, the figures for the GI50 with NCI-H23 lung and in the test with MCF7 breast were 5.02 µM and 0.327 µM, respectively. Also, the TGI in the test with HL-60(TB) leukemia was over 100 µM; in the test with HCT-15 colon, 13.8 µM; in the test with IGROV1 ovarian, over 50 µM; in the test on UACC-257 melanoma, 38.1 µM; in the test on NCI-H460 lung, 10.4 µM; in the test on COLO 205 colon it was 7.01 µM. For the same molecule, the TGI amounted to 27.8 µM in the test with NCI-H23 lung and 13.3 µM with MCF7 breast.
With `O=C(N/N=C/c1ccc(F)cc1)c1ccc(C(F)(F)F)nc1Nc1cccc(C(F)(F)F)c1`, the GI50 is 0.827 µM in the test on HL-60(TB) leukemia; 0.351 µM in the test with HCT-15 colon; 1.68 µM in the test on IGROV1 ovarian; 2.23 µM with UACC-257 melanoma; 1.29 µM with NCI-H460 lung; 1.56 µM in the test with COLO 205 colon. Further, the GI50 with NCI-H23 lung is 2.58 µM; with MCF7 breast, 1.47 µM. Further, the TGI with HL-60(TB) leukemia is 3.72 µM; with HCT-15 colon, 1.87 µM; with IGROV1 ovarian, 4.84 µM; in the test with UACC-257 melanoma it was 6.72 µM; in the test with NCI-H460 lung, 3.08 µM; in the test on COLO 205 colon it was 3.47 µM. Also, the TGI in the test with NCI-H23 lung turned out to be 11.9 µM; with MCF7 breast, 5.78 µM.
Consider `CNCc1cccc2c1OCCOCCOCCC(C)S(=O)(=O)c1ccc(cc1)-c1cnc(N)c(n1)C(=O)N2` (centres undefined), for which the GI50 in the test with HL-60(TB) leukemia was 1.81 µM; with HCT-15 colon it was 1.11 µM; in the test on IGROV1 ovarian, 0.659 µM; in the test with UACC-257 melanoma, 1.91 µM; in the test with NCI-H460 lung, 1.12 µM; in the test on COLO 205 colon, 0.564 µM. Besides, the GI50 in the test on NCI-H23 lung was 3.71 µM; with MCF7 breast, 1.28 µM. Moreover, the TGI came to 3.83 µM with HL-60(TB) leukemia; 6.2 µM in the test on HCT-15 colon; 4.78 µM in the test on IGROV1 ovarian; 4.55 µM in the test with UACC-257 melanoma; 2.73 µM in the test with NCI-H460 lung; 5.25 µM in the test with COLO 205 colon. Also, the TGI worked out at 18.9 µM with NCI-H23 lung and 14.6 µM in the test on MCF7 breast.
As to `COc1ccc(/C(C)=C(\c2ccc(Cl)cc2)c2ccc(OCCN3CCCCCC3)cc2)cc1F`, the GI50 with HL-60(TB) leukemia was 3.25 µM; in the test with HCT-15 colon, 0.668 µM; in the test with IGROV1 ovarian, 3.07 µM; in the test with UACC-257 melanoma it was 3.4 µM; with NCI-H460 lung it was 2.56 µM; with COLO 205 colon, 1.62 µM. For the same molecule, the GI50 in the test with NCI-H23 lung is 3.07 µM; with MCF7 breast it was 3.59 µM. For the same molecule, the TGI in the test on HL-60(TB) leukemia was found to be 7.11 µM; with HCT-15 colon it was 2.85 µM; in the test with IGROV1 ovarian it was 9.34 µM; in the test with UACC-257 melanoma, 7.87 µM; in the test with NCI-H460 lung it was 5.4 µM; with COLO 205 colon it was 7.47 µM. The TGI was 10.4 µM in the test with NCI-H23 lung and 11.1 µM with MCF7 breast.
